In ChEMBL document CHEMBL5614367, “Hydroxamic acid hybrids: Histone deacetylase inhibitors with anticancer therapeutic potency” (Eur J Med Chem, 2023):

Experiments:
[1] = molecular target: T1, Protein deacetylase HDAC6 (Homo sapiens, UniProt Q9UBN7); assay: Inhibition of HDAC6 (unknown origin)
T1 sequence (Q9UBN7 whole entry): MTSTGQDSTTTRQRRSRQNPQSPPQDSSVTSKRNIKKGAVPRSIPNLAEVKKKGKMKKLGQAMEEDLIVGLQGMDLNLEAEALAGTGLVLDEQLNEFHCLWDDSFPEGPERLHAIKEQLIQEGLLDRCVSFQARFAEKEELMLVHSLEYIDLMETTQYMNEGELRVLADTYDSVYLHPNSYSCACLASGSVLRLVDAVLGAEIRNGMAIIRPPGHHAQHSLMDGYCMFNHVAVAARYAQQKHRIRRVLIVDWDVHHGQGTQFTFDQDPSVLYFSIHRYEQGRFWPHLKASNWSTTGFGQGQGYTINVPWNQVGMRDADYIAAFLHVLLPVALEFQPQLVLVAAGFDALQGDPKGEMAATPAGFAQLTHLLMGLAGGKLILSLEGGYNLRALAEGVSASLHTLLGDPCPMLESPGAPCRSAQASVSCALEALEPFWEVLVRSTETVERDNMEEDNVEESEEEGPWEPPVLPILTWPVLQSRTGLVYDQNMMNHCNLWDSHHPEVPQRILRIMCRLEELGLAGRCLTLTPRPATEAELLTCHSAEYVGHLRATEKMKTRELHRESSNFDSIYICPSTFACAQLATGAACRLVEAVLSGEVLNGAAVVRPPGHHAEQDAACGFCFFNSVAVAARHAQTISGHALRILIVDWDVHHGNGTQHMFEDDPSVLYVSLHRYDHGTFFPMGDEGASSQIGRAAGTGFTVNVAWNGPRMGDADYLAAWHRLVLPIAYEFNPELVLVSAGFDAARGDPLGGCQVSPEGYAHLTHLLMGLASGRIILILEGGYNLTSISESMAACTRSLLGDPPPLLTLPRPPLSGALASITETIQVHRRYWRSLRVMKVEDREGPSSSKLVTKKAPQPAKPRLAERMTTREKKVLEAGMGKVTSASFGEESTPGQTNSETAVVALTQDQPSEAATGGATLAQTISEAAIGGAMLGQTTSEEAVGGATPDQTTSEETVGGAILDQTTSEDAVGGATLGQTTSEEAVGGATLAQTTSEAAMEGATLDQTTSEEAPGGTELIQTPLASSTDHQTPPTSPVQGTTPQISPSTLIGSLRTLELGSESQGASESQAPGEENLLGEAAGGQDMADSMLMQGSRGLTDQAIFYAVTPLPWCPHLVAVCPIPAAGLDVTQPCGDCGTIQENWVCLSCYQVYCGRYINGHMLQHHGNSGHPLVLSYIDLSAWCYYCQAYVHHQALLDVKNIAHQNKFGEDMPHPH

[2] = molecular target: T2, Histone deacetylase 1 (Homo sapiens, UniProt Q13547); assay: Inhibition of HDAC1 (unknown origin)
[3] = test system: K562; assay: Antiproliferative activity against human K562 cells by MTT assay; format: functional, cell-based
[4] = test system: U-937; assay: Antiproliferative activity against human U-937 cells by MTT assay; format: functional, cell-based
[5] = test system: HCT-116; assay: Antiproliferative activity against human HCT-116 cells by MTT assay; format: functional, cell-based
[6] = molecular target: DNA (cytosine-5)-methyltransferase 1 (Homo sapiens, UniProt P26358); assay: Inhibition of DNMT1 (unknown origin)
[7] = Metabolic stability in rat liver microsomes assessed as half life; format: ADME, Microsome
[8] = molecular target: Cytochrome P450 2D6 (Homo sapiens, UniProt P10635); assay: Inhibition of CYP2D6 in human liver microsomes; format: ADME, Microsome
[9] = test system: K562; assay: cells; format: functional, cell-based; conditions: Homo sapiens, K562, 72 h
Description: Antiproliferative activity against human K562 cells assessed as inhibition of cell growth measured after 72 hrs by CCK-8 assay

[10] = test system: U-266; assay: cells; format: functional, cell-based; conditions: Homo sapiens, U-266, 72 h
Description: Antiproliferative activity against human U-266 cells assessed as inhibition of cell growth measured after 72 hrs by CCK-8 assay

[11] = test system: U-937; assay: cells; format: functional, cell-based; conditions: Homo sapiens, U-937, 72 h
Description: Antiproliferative activity against human U-937 cells assessed as inhibition of cell growth measured after 72 hrs by CCK-8 assay

[12] = test system: C6; assay: cells; format: functional, cell-based; conditions: Rattus norvegicus, C6, 72 h
Description: Antiproliferative activity against rat C6 cells assessed as inhibition of cell growth measured after 72 hrs by CCK-8 assay

[13] = test system: FaDu; assay: cells; format: functional, cell-based; conditions: Homo sapiens, 72 h
Description: Antiproliferative activity against human FaDu cells assessed as inhibition of cell growth measured after 72 hrs by CCK-8 assay

[14] = test system: MDA-MB-231; assay: cells; format: functional, cell-based; conditions: Homo sapiens, MDA-MB-231, 72 h
Description: Antiproliferative activity against human MDA-MB-231 cells assessed as inhibition of cell growth measured after 72 hrs by CCK-8 assay

[15] = test system: MDA-MB-468; assay: cells; format: functional, cell-based; conditions: Homo sapiens, MDA-MB-468, 72 h
Description: Antiproliferative activity against human MDA-MB-468 cells assessed as inhibition of cell growth measured after 72 hrs by CCK-8 assay

[16] = test system: A549; assay: cells; format: functional, cell-based; conditions: Homo sapiens, A549, 72 h
Description: Antiproliferative activity against human A549 cells assessed as inhibition of cell growth measured after 72 hrs by CCK-8 assay

[17] = test system: A2780; assay: cells; format: functional, cell-based; conditions: Homo sapiens, A2780, 72 h
Description: Antiproliferative activity against human A2780 cells assessed as inhibition of cell growth measured after 72 hrs by CCK-8 assay

[18] = test system: HepG2; assay: cells; format: functional, cell-based; conditions: Homo sapiens, HepG2, 72 h
[19] = Cytotoxicity against human L02 cells; format: toxicity, cell-based
[20] = Cytotoxicity against human BEAS-2B cells; format: toxicity, cell-based
[21] = test system: K562; assay: Antiproliferative activity against human K562 cells assessed as cell growth inhibition by SRB assay; format: functional
[22] = test system: A549; assay: Antiproliferative activity against human A549 cells assessed as cell growth inhibition by SRB assay; format: functional
[23] = test system: MCF7; assay: Antiproliferative activity against human MCF7 cells assessed as cell growth inhibition by SRB assay; format: functional
[24] = test system: HeLa; assay: Antiproliferative activity against human HeLa cells assessed as cell growth inhibition by SRB assay; format: functional
[25] = molecular target: T2, Histone deacetylase 1; assay: Inhibition of HDAC1 in human HeLa cells incubated for 72 hrs by ELISA; format: cell-based
[26] = molecular target: T1, Protein deacetylase HDAC6; assay: Inhibition of HDAC6 in human HeLa cells incubated for 72 hrs by ELISA; format: cell-based
[27] = test system: HL-60; assay: Cytotoxicity against human HL-60 cells assessed as reduction in cell viability incubated for 72 hr by MTT assay; format: functional, cell-based; conditions: HL-60, 72 h
[28] = test system: K562; assay: Cytotoxicity against human K562 cells assessed as reduction in cell viability incubated for 72 hrs by Cell-titer Glo based analysis; format: functional; conditions: K562, 72 h
[29] = test system: HL-60; assay: Cytotoxicity against human HL-60 cells assessed as reduction in cell viability incubated for 72 hrs by Cell-titer Glo based analysis; format: functional; conditions: HL-60, 72 h
[30] = test system: HPBALL; assay: Cytotoxicity against human HPBALL cells assessed as reduction in cell viability incubated for 72 hrs by MTT assay; format: functional, cell-based
[31] = test system: NALM-6; assay: Cytotoxicity against human NALM-6 cells assessed as reduction in cell viability incubated for 72 hrs by MTT assay; format: functional, cell-based; conditions: NALM-6, 72 h
[32] = test system: MOLM-13; assay: Antiproliferative activity against human MOLM-13 cells assessed as reduction in cell viability incubated for 72 hrs by MTT assay; format: functional, cell-based; conditions: MOLM-13, 72 h
[33] = test system: Plasmodium falciparum; assay: Antiplasmodial activity against Plasmodium falciparum 3D7 assessed as reduction in parasite growth incubated for 3 days by ELISA analysis; format: functional, organism-based; conditions: 3D7, 72 h
[34] = test system: Plasmodium falciparum; assay: Antiplasmodial activity against Plasmodium falciparum Dd2 assessed as reduction in parasite growth incubated for 3 days by ELISA analysis; format: functional, organism-based; conditions: Dd2, 72 h
[35] = test system: Plasmodium falciparum; assay: Antiplasmodial activity against artemisinin-resistant Plasmodium falciparum Dd2 R539T assessed as reduction in parasite growth incubated for 3 days by ELISA analysis; format: functional, organism-based; conditions: 72 h
[36] = molecular target: T1, Protein deacetylase HDAC6; assay: Inhibition of human recombinant HDAC6 using ZMAL (Z-Lys(Ac)-AMC as fluorogenic substrate pre-incubated for 30 mins followed by substrate addition and measured for 1 hr by Fluorescence based analysis
[37] = test system: KYSE-450; assay: Antiproliferative activity against human KYSE-450 cells; format: functional, cell-based
[38] = test system: MGC-803; assay: Antiproliferative activity against human MGC-803 cells; format: functional, cell-based
[39] = test system: BGC-823; assay: Antiproliferative activity against human BGC-823 cells; format: functional, cell-based
[40] = test system: HGC-27; assay: Antiproliferative activity against human HGC-27 cells; format: functional, cell-based
[41] = test system: MGC-803; assay: Antitumor activity against human MGC-803 cells xenografted in mouse assessed as tumor growth inhibition at 20 mg/kg relative to control; format: functional; conditions: read-out: TGI
[42] = test system: KYSE-450; assay: Potency index, ratio of vorinostat IC50 to test compound IC50 for antiproliferative activity against human KYSE-450 cells; format: functional
[43] = test system: HCT-116; assay: Potency index, ratio of vorinostat IC50 to test compound IC50 for antiproliferative activity against human HCT-116 cells; format: functional
[44] = test system: KYSE-450; assay: Potency index, ratio of TAE-226 IC50 to test compound IC50 for antiproliferative activity against human KYSE-450 cells; format: functional
[45] = test system: HCT-116; assay: Potency index, ratio of TAE-226 IC50 to test compound IC50 for antiproliferative activity against human HCT-116 cells; format: functional
[46] = molecular target: Focal adhesion kinase 1 (Homo sapiens, UniProt Q05397); assay: Inhibition of FAK (unknown origin)
[47] = test system: HCT-116; assay: cells; conditions: Homo sapiens
[48] = test system: U-87 MG; assay: Antiproliferative activity against human U-87 MG cells; format: functional, cell-based, U-87MG ATCC
[49] = test system: SCC-25; assay: Antiproliferative activity against human SCC-25 cells; format: functional, cell-based
[50] = Cytotoxicity against HEK293T cells; format: toxicity, cell-based, HEK-293T; conditions: human
[51] = test system: MCF7; assay: cells; conditions: Homo sapiens

T2 sequence (Q13547 whole entry): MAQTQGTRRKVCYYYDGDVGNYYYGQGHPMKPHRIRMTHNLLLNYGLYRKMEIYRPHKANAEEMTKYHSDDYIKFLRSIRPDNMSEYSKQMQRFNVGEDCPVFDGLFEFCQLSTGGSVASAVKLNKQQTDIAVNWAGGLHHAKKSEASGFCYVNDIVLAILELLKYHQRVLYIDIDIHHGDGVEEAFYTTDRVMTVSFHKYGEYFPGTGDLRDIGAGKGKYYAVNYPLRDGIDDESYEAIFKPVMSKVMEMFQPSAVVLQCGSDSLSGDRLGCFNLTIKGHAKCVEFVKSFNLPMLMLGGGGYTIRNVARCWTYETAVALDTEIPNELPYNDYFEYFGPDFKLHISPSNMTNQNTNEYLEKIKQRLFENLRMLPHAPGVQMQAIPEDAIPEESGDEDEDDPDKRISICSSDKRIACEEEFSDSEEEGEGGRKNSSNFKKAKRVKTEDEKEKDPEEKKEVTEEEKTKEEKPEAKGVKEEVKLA
Focal adhesion kinase 1, sequence (Q05397 whole entry): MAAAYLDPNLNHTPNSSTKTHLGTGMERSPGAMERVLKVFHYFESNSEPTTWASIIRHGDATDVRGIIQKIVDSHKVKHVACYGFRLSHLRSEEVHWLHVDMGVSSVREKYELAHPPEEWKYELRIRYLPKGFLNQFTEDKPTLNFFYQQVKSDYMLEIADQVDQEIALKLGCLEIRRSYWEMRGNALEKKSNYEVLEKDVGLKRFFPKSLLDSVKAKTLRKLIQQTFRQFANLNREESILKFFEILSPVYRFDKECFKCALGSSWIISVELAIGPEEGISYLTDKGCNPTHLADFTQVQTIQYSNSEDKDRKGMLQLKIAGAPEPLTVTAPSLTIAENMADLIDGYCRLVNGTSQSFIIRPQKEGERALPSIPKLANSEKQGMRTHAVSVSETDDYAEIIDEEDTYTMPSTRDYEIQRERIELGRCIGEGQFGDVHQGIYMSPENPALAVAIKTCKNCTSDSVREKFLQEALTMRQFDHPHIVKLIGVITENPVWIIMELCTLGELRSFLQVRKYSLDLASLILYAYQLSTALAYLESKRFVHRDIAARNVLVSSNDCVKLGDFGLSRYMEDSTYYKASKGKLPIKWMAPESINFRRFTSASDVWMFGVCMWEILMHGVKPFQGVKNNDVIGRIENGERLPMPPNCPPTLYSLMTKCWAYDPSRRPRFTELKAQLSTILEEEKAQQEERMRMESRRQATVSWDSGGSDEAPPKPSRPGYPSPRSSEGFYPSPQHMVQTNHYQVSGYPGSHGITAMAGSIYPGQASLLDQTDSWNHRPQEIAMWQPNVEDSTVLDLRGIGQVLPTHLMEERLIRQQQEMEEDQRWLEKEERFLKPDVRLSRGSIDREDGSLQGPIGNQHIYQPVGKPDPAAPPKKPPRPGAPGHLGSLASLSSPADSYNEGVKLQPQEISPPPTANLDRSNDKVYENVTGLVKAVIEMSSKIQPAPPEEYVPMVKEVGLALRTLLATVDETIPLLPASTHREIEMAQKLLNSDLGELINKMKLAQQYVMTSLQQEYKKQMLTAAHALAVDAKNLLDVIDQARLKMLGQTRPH
DNA (cytosine-5)-methyltransferase 1, sequence (P26358 whole entry): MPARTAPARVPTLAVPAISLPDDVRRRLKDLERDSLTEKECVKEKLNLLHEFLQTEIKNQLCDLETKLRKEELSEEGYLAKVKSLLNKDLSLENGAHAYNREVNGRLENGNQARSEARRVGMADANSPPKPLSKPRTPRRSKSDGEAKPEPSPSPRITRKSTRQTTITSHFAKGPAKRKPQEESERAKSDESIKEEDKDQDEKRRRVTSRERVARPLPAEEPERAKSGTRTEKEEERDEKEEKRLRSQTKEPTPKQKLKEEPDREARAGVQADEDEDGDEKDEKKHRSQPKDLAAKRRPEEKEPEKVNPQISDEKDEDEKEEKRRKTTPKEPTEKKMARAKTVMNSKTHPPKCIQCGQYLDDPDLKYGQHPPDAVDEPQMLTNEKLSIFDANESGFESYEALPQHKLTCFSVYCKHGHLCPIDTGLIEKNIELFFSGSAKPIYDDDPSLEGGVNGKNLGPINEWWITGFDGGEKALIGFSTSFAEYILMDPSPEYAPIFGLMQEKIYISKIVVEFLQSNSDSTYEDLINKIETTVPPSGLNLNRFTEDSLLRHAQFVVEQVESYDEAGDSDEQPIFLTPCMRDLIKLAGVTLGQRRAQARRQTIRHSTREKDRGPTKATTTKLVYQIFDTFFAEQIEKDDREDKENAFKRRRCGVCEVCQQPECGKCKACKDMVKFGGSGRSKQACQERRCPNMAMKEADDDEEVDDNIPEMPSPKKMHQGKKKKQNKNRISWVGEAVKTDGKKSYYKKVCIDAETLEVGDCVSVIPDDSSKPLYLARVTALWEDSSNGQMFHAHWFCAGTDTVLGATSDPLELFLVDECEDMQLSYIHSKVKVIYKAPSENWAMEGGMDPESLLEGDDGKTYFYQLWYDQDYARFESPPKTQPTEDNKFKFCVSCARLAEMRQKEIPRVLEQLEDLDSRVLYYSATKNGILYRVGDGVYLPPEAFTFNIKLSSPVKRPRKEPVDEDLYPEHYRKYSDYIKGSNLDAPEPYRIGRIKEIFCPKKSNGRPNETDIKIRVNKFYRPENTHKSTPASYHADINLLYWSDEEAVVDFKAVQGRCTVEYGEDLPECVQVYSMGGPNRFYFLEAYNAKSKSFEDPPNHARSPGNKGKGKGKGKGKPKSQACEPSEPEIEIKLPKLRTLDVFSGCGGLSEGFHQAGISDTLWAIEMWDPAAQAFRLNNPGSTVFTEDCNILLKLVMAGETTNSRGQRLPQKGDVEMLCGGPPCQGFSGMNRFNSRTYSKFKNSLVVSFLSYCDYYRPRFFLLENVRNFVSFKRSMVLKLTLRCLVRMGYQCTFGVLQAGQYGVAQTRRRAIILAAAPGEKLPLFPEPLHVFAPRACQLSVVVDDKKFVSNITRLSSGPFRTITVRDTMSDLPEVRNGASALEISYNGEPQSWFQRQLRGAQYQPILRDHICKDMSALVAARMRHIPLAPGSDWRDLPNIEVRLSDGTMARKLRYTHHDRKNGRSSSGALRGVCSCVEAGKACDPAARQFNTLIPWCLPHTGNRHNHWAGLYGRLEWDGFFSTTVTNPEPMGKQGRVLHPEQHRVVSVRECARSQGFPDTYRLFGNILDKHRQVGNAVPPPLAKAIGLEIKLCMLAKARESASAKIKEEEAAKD
Cytochrome P450 2D6, sequence (P10635 whole entry): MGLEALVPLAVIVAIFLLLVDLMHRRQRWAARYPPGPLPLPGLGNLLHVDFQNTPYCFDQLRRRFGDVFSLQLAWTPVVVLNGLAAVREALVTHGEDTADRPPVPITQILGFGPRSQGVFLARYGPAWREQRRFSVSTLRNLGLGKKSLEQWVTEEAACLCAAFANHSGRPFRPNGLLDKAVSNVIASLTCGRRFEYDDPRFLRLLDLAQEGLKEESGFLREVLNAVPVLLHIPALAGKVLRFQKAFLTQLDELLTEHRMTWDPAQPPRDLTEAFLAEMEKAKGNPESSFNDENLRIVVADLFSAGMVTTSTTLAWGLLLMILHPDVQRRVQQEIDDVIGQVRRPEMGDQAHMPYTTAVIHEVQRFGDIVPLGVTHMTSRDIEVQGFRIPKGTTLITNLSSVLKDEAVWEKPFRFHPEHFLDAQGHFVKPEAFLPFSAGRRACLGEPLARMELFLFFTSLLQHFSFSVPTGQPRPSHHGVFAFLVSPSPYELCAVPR

Nc1ccn(Cc2ccc(-c3cn(CCCCCCC(=O)NO)nn3)cc2)c(=O)n1
IC50 [1]: 8.37 nM | IC50 [2]: 2.68 nM | IC50 [3]: 7100 nM | IC50 [4]: 7100 nM | IC50 [5]: 7100 nM | IC50 [6]: 6390 nM | half-life [7]: 6.08 h | IC50 [8]: 8700 nM

COc1cc(Nc2nc(N3CCN(c4ncc(C(=O)NO)cn4)CC3)ncc2Cl)cc(OC)c1
IC50 [9]: 280 nM | IC50 [10]: 280 nM | IC50 [11]: 280 nM | IC50 [12]: 280 nM | IC50 [13]: 280 nM | IC50 [14]: 280 nM | IC50 [15]: 280 nM | IC50 [16]: 280 nM | IC50 [17]: 280 nM | IC50 [18]: 280 nM

CCCOc1ccc2c(OCCCCCCCC(=O)NO)cc(=O)oc2c1
IC50 [19]: > 50000 nM | IC50 [20]: > 50000 nM

COc1ccc(-c2cn(CCCCCC(=O)NO)c(C)c2C(C)=O)cc1
GI50 [21]: < 10000 nM | GI50 [22]: < 10000 nM | GI50 [23]: < 10000 nM | GI50 [24]: < 10000 nM | IC50 [25]: 52 nM | IC50 [26]: 52 nM

C[C@@H]1CC[C@H]2[C@@H](C)C(OCC(=O)NO)C[C@@H]3O[C@]4(C)CC[C@@H]1[C@]32OO4 (some centres undefined)
IC50 [27]: 690 nM | IC50 [28]: 690 nM | IC50 [29]: 690 nM | IC50 [30]: 150 nM | IC50 [31]: 150 nM | IC50 [32]: 690 nM | IC50 [33]: 1.9 nM | IC50 [34]: 1.9 nM | IC50 [35]: 1.9 nM | IC50 [36]: 187 nM

CNC(=O)c1ccccc1Nc1nc(Nc2ccc(NC(=O)CCCCCCC(=O)NO)cc2)ncc1Cl
IC50 [37]: 182 nM | IC50 [38]: 3.9 nM | IC50 [39]: 15.4 nM | IC50 [40]: 18.4 nM | inhibition in vivo at 20 mg/kg [41]: 53.5% | Ratio IC50 [42]: 2.8 | Ratio IC50 [43]: 2.8 | Ratio IC50 [44]: 2.8 | Ratio IC50 [45]: 2.8 | IC50 [1]: 16 nM | IC50 [46]: 132 nM | IC50 [47]: 182 nM

O=C(NO)c1c(Cl)cc2c(c1Cl)CCN(C(=O)c1cc3ccccc3[nH]1)C2
IC50 [1]: 0.2 nM | IC50 [48]: 3110 nM | IC50 [49]: 3110 nM | IC50 [50]: 56900 nM | IC50 [51]: 3110 nM

CC(=O)c1c(-c2ccc([N+](=O)[O-])cc2)cn(CCCCCC(=O)NO)c1C
GI50 [21]: < 10000 nM | GI50 [22]: < 10000 nM | GI50 [23]: < 10000 nM | GI50 [24]: < 10000 nM | IC50 [25]: 52 nM | IC50 [26]: 52 nM
